Reference: ChEMBL document CHEMBL1201862, “PubChem BioAssay data set” (2004)
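The compound was tested at five concentrations on cells cultured in 96-well plates, with a 48-hour exposure period. Here, GI50 denotes the concentration required for 50% inhibition of growth.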 Activity calls are given as the source filed them. Rule as the data show it: active = GI50 up to about 1.1 µM and inactive = higher.

What was measured:
Test in all cases: NCI-60 cell line screen, 48 h
[1] = tested on: MDA-N
[2] = tested on: HT-29
[3] = tested on: DLD-1
[4] = tested on: T47D
[5] = tested on: KM-20L2
[6] = tested on: A549
[7] = tested on: HCT-15
[8] = tested on: OVCAR-3
[9] = tested on: HOP-92
[10] = tested on: NCI-H460
[11] = tested on: CAKI-1
[12] = tested on: SF-268
[13] = tested on: BT-549
[14] = tested on: PC-3
[15] = tested on: NCI-H226
[16] = tested on: OVCAR-5
[17] = tested on: HOP-62
[18] = tested on: MDA-MB-435
[19] = tested on: HOP-18
[20] = tested on: SF-295
[21] = tested on: HCT-116
[22] = tested on: DMS-114
[23] = tested on: SN12C
[24] = tested on: NCI-H23
[25] = tested on: HCC 2998
[26] = tested on: SW-620
[27] = tested on: KM12
[28] = tested on: Hs-578T
[29] = tested on: SR
[30] = tested on: DU-145
[31] = tested on: 786-0
[32] = tested on: SNB-78
[33] = tested on: NCI/ADR-RES
[34] = tested on: UACC-257
[35] = tested on: IGROV-1
[36] = tested on: DMS-273
[37] = tested on: SNB-19
[38] = tested on: MOLT-4
[39] = tested on: UO-31
[40] = tested on: M14
[41] = tested on: SK-MEL-2
[42] = tested on: RPMI-8226
[43] = tested on: ACHN
[44] = tested on: LOX IMVI
[45] = tested on: SF-539
[46] = tested on: SNB-75
[47] = tested on: K562
[48] = tested on: RXF 393
[49] = tested on: TK-10
[50] = tested on: M19-MEL
[51] = tested on: HL-60
[52] = tested on: OVCAR-8
[53] = tested on: LXFL 529
[54] = tested on: EKVX
[55] = tested on: U-251
[56] = tested on: SK-MEL-5
[57] = tested on: SK-MEL-28
[58] = tested on: OVCAR-4
[59] = tested on: COLO 205
[60] = tested on: UACC-62
[61] = tested on: CCRF-CEM

Question: How did the GI50 [1] turn out when CNCCNc1ccc2c3c(nn2CCNCCO)-c2c(O)ccc(O)c2C(=O)c13 was run?
Answer: The GI50 was 0.966 µM (active).

Question: What about the GI50 [2] of the same compound?
Answer: The GI50 was 0.378 µM (active).

Question: And the GI50 [3]?
Answer: Its GI50 is 1.26 µM (inactive).

Question: And the GI50 [4]?
Answer: Its GI50 is 0.635 µM (active).

Question: What about the GI50 [5] of the same compound?
Answer: The GI50 was 0.55 µM (active).

Question: And the GI50 [6]?
Answer: The GI50 was 0.0597 µM (active).

Question: What about the GI50 [7] of the same compound?
Answer: Its GI50 is 1.72 µM.

Question: What about the GI50 [8] of the same compound?
Answer: Its GI50 is 1.03 µM (active).

Question: What about the GI50 [9] of the same compound?
Answer: The GI50 was 0.173 µM (active).

Question: What about the GI50 [10] of the same compound?
Answer: The GI50 was 0.0139 µM (active).

Question: What about the GI50 [11] of the same compound?
Answer: The GI50 was 0.101 µM (active).

Question: And the GI50 [12]?
Answer: Its GI50 is 0.0601 µM (active).

Question: And the GI50 [13]?
Answer: Its GI50 is 0.109 µM (active).

Question: What about the GI50 [14] of the same compound?
Answer: The GI50 was 0.535 µM (active).

Question: What about the GI50 [15] of the same compound?
Answer: Its GI50 is 0.0227 µM (active).

Question: What about the GI50 [16] of the same compound?
Answer: The GI50 was 0.468 µM (active).

Question: What about the GI50 [17] of the same compound?
Answer: Its GI50 is 0.0179 µM (active).

Question: What about the GI50 [18] of the same compound?
Answer: Its GI50 is 0.923 µM (active).

Question: What about the GI50 [19] of the same compound?
Answer: Its GI50 is 0.508 µM (active).

Question: What about the GI50 [20] of the same compound?
Answer: The GI50 was 0.0681 µM (active).

Question: What about the GI50 [21] of the same compound?
Answer: The GI50 was 0.346 µM (active).

Question: And the GI50 [22]?
Answer: Its GI50 is 0.0575 µM (active).

Question: And the GI50 [23]?
Answer: The GI50 was 0.0397 µM (active).

Question: What about the GI50 [24] of the same compound?
Answer: Its GI50 is 0.111 µM (active).

Question: What about the GI50 [25] of the same compound?
Answer: The GI50 was 0.2 µM (active).

Question: And the GI50 [26]?
Answer: The GI50 was 0.273 µM (active).

Question: And the GI50 [27]?
Answer: The GI50 was 0.211 µM (active).

Question: And the GI50 [28]?
Answer: The GI50 was 0.166 µM (active).

Question: And the GI50 [29]?
Answer: The GI50 was 0.0519 µM (active).

Question: And the GI50 [30]?
Answer: Its GI50 is 0.0713 µM (active).

Question: And the GI50 [31]?
Answer: Its GI50 is 0.08 µM (active).

Question: And the GI50 [32]?
Answer: Its GI50 is 0.526 µM (active).

Question: What about the GI50 [33] of the same compound?
Answer: The GI50 was 20.8 µM (inactive).

Question: And the GI50 [34]?
Answer: The GI50 was 1.81 µM (inactive).

Question: And the GI50 [35]?
Answer: Its GI50 is 0.454 µM (active).

Question: What does the source list for O=C1CCC(c2ccc(Cl)cc2)=NN1c1nsc2ccccc12?
Answer: GI50 [2]: 30.1 µM (inactive); GI50 [36]: 25.6 µM (inactive); GI50 [37]: 34.4 µM (inactive); GI50 [38]: 19.7 µM (inactive); GI50 [39]: 18 µM (inactive); GI50 [5]: 35.2 µM (inactive); GI50 [40]: > 10 µM (inactive); GI50 [41]: 19.1 µM (inactive); GI50 [6]: 37.9 µM (inactive); GI50 [42]: 19.3 µM (inactive); GI50 [7]: > 10 µM; GI50 [43]: 34.1 µM (inactive); GI50 [8]: 17.7 µM (inactive); GI50 [9]: 21.5 µM (inactive); GI50 [10]: 29.6 µM (inactive); GI50 [44]: > 10 µM (inactive); GI50 [45]: 48.4 µM (inactive); GI50 [12]: 38.9 µM (inactive); GI50 [46]: 5.77 µM (inactive); GI50 [47]: 22.2 µM (inactive); GI50 [48]: 11.5 µM (inactive); GI50 [49]: 46.3 µM (inactive); GI50 [16]: 51.2 µM (inactive); GI50 [17]: 39.2 µM (inactive); GI50 [50]: 37.2 µM (inactive); GI50 [19]: 18.7 µM (inactive); GI50 [51]: 20 µM (inactive); GI50 [52]: 31.8 µM (inactive); GI50 [53]: 26.8 µM (inactive); GI50 [21]: 19.7 µM (inactive); GI50 [54]: 23.3 µM (inactive); GI50 [22]: 27.9 µM (inactive); GI50 [23]: 25.6 µM (inactive); GI50 [24]: 26.7 µM (inactive); GI50 [25]: 18.2 µM (inactive); GI50 [26]: 58.1 µM (inactive); GI50 [27]: 29.2 µM (inactive); GI50 [55]: 34.1 µM (inactive); GI50 [56]: > 10 µM (inactive); GI50 [29]: 22.3 µM (inactive); GI50 [57]: 31.6 µM (inactive); GI50 [58]: 36.1 µM (inactive); GI50 [59]: 36.5 µM (inactive); GI50 [60]: 43.1 µM (inactive); GI50 [32]: 25.4 µM (inactive); GI50 [34]: 22.9 µM (inactive); GI50 [61]: 17.7 µM (inactive); GI50 [35]: 39.4 µM (inactive)
